This note sets out measurements from patent US20250326756A1, “METHOD FOR PRODUCING 3,6-DISUBSTITUTED-IMIDAZO[1,2-B]PYRIDAZINE COMPOUNDS” (NUVATION BIO INC., priority 2022, published 2025).

The nature of this data set: Particle size distribution of monoadipate salt particles. The format is physicochemical. Particulars: particles without milling or after wet milling. As for the experimental part: The crude product was purified and milled as follows: After 4.02 Kg/Kg of anhydrous ethanol and 2.2 Kg/Kg of purified water were added into a reactor and stirred, the crude product obtained above was added to the mixture. The reaction mixture was heated to 65-70° C. and stirred until a clear solution was obtained. The recommended stirring time and rotation speed were 0.5-1 hour and 60-100 rpm, respectively. The reaction mixture was then cooled to 50-55° C. (target temperature: 53° C.) with a recommended cooling rate of 5-10° C./h. After 0.01 Kg/Kg of seed crystals of the compound of formula (5) adipate salt were added to the mixture at 50˜55° C., the mixture was stirred for 1˜3 hours (target: 2 hours) at this temperature. The reaction mixture was cooled down to 20-30° C. (target temperature: 25° C.) with recommended cooling rate of 5-10° C./h. After 8.4 Kg/Kg of purified water was slowly added to the mixture at 20-30° C. in 1-3 hours (target: 2 hours), the mixture was stirred for 1˜3 hours (target: 2 hours) at this temperature. The mixture was cooled to −5 to 5° C. (target temperature: 0° C.) at a cooling rate of 5 to 10° C./h, and stirred at this temperature for 4 to 8 hours (target: 6 hours). While maintaining the temperature at −5 to 5° C. (target temperature: 0° C.), the reaction mixture was passed through a wet mill (Blade no. 2, 6, and 6; rotation speed: 6,000-10,000 rpm, target: 8,000 rpm). Samples were taken every 20-30 minutes to measure the particle size of the solids after wet milling until D50 was no more than 45 μm (target: 35-45 μm). The reaction mixture was filtered through a filter with filter dryer sheath pre-cooled to T=−5˜5° C. The filter cake was washed with a mixture of 1.1 Kg/Kg of purified water and 0.39 Kg/Kg of anhydrous ethanol, which was pre-cooled to −5˜5° C. and maintain for at least 0.5 hour. The solid thus obtained was dried at 50˜60° C. in an oven under a controlled temperature of no more than 70° C. for 12 hours. Samples were taken every 4˜8 hours to track the residual ethanol and make sure the content of residual ethanol was no more than 0.4%. […]

Regarding “3-(4-((R)-2-aminopropoxy)phenyl)-N—((R)-1-(3-fluorophenyl)ethyl)imidazo[1,2-b]pyridazin-6-amine adipate salt [compound of formula (5) adipate salt]”, the “Particle size D10” value is given as 7.2 μm, the “Particle size D50” value amounted to 44 μm and the “Particle size D90” value was 107 μm.
